Assay results reported in patent US11980613B2, “Methods for reversing HIV latency using BAF complex modulating compounds” (priority 2018, dated 2024).

System: BAF target genes c-MYC and p21
Test: Biomarkers: mRNA of BAF target genes p21 and c-MYC in CD4+ T cells
Format: cell-based, human
Description: [drawing 27] i. BRD-K25923209: To Macrocycle 2141-039b (0.804 g, 1.550 mmol) dissolved in MeOH (Volume: 15.50 ml) was added tin(II) chloride dihydrate (3.50 g, 15.50 mmol). The reaction mixture was stirred at 40° C. for 24 h until LC/MS indicated complete consumption of starting material (nitro) and presence of desired mass. Upon completion, the reaction mixture was concentrated and the resulting residue was dissolved in EtOAc and washed with 2 M aq. KOH (2×). The combined aqueous layers were washed with EtOAc (4×). The resulting organic layers were washed with brine, saturated aqueous NaHCO3, water, and brine, dried over MgSO4, filtered, and concentrated. The crude aniline was sufficiently pure to use in the capping step and therefore was used without purification. Note: The workup as described above produces a lot of precipitate/emulsion. This can be overcome by extensive washing or alternately, the reaction can be quenched with 1 volume of 1 M NaOH, stirred with celite for 10 minutes, and filtered prior to workup to yield 33.8% (17.2 mg) over 3 steps. (M+H)^+ calculated=489.286 (M+H)^+ average (3 ESI replicates)=489.2866±0.92. j. BRD-K80443127: A screwtop vial was charged with aniline (BRD-K25923209) (43.3 mg, 0.089 mmol) and CH2Cl2 (Volume: 886 μl, Density: 1.325 g/ml). Isopropyl chloroformate (115 μl, 0.115 mmol) and DIEA (46.4 μl, 0.266 mmol) were added dropwise and reaction stirred under ambient conditions for 1 h. […] The reaction mixture was loaded directly onto SiO2 and purified via ISCO (1-12% MeOH in CH2Cl2, 20 min); Collected fractions 40-44 to afford the product as a yellow oil in 33.8% (17.2 mg) yield. (M+H)^+ calculated=575.3228 (M+H)^+ average (3 ESI replicates)=575.3235±1.32. k. BRD-K04244835: A 2.5 mL microwave vial was charged with aniline (BRD-K25923209) (40 mg, 0.082 mmol) and EtOH (Volume: 819 μl, Density: 0.81 g/ml). Squaramide (CRE-III-001) (20.75 mg, 0.098 mmol), DIEA (42.8 μl, 0.246 mmol), and DMAP (2.000 mg, 0.016 mmol) were added in sequence and the vial was sealed. […] (M+H)^+ calculated=654.365 (M+H)^+ average (3 ESI replicates)=654.3661±1.64. […]

**Q.** Which “differential expression of c-MYC and p21” value (CD4+ T cells from 3 healthy donors, 3 μM, 16 hours) does the source give for `CO[C@H]1CN(C)C(=O)c2cc(NC(=O)OC(C)C)ccc2OC[C@H](C)N(Cc2ccc(-c3ccccn3)cc2)C[C@@H]1C` [BRD-K80443127] here?
**A.** consistent with BAF inhibition

**Q.** And the C-MYC transcript levels (three patients, 10 μM)?
**A.** significant decrease

**Q.** What about the p21 transcript levels (three patients, 10 μM) of the same molecule?
**A.** significant decrease
